Source: US8557222B2, “Radiopharmaceutical imaging of neurodegenerative diseases” (priority 2008, dated 2013)

Assays:
[1] = Brain washout of first radiopharmaceutical in the dual imaging protocol; type: in vivo, human; conditions: 10 mCi intravenous; at second acquisition, 30 minutes after ^18F-AV-133 given about 50 minutes after start of protocol
Excerpt: The cortical regions are where amyloid plaques are found in the brain using the ^18F-AV-45 radiopharmaceutical, while the striatal regions contain dopaminergic neurons detected with the ^18F-AV-133 radiopharmaceutical. […] FIGS. 5 and 6 show simulated activity curves for cortical and striatal regions of the brain, respectively, for an individual with AD. FIGS. 8 and 9 show simulated activity curves for cortical and striatal regions of the brain, respectively, of an individual with PD while FIGS. 11 and 12 show simulated activity curves for cortical and striatal regions of the brain, respectively, of an individual with AD and PD. […] Whenever the two radiopharmaceuticals were considered as being simultaneously present in the brain, the SUVs from both radiopharmaceuticals for each region were summed together, and the summed SUVs were plotted. This allowed for the simulation/prediction of the interaction and possible interference of activity of one radiopharmaceutical with the other when both are present in the brain during the imaging of the subject.
Through analyzing and experimenting with the plots and images described above, a protocol for the simultaneous imaging of AD plaques and dopaminergic neuronal degeneration was created. […] The total protocol time was about 80 to 90 minutes. […]

[2] = tested on: β-amyloid plaque; assay: PET imaging of β-amyloid plaque with ^18F-AV-45 (fused/simulated dual radiopharmaceutical images); type: in vivo, human; conditions: imaged between 70 and 80 minutes, simulated fused image
Protocol: (§1) Data was generated from the radiopharmaceutical imaging of β-amyloid plaque and nigrostriatal dopaminergic degeneration utilizing dual radiopharmaceuticals. The radiopharmaceuticals utilized included ^18F-AV-45, which targets β-amyloid plaque and ^18F-AV-133, which targets nigrostriatal neurons. The radiopharmaceuticals were administered via intravenous injection to subjects who were clinically diagnosed with Parkinson's Disease (PD) or Alzheimer's Disease (AD).
(§2) Data was analyzed for PD patients (PD_AV133) and Healthy Controls (HC_AV133) as well as for AD patients (AD_AV45) and Healthy Controls (HC_AV45). Data and images derived from subjects in each category were analyzed individually. Data and images from an average of 4 subjects in each respective category was also analyzed and used as the basis of this protocol. The optimal imaging protocol was judged based on the following criteria: clarity of images/data in the cortical, grey, and white volumes of interest (VOIs) of the brain (relating to diagnosis of AD) and the striatal VOIs of the brain (relating to diagnosis of PD/DLB); ease and level of certainty of the individual diagnoses of the presence or absence of AD, PD, and DLB; minimum level of radiation injected into a patient; and minimum protocol completion time.
(§3) FIGS. 1, 4, 7 and 10 were created by the fusion of two separate image data sets, one from a PET scan of an ^18F amyloid plaque-binding radiopharmaceutical (^18F-AV-45) and one from a PET scan of an ^18F VMAT2 targeted radiopharmaceutical (^18F-AV-133). FIG. 1 is a simulated image of the brain of a healthy individual with no observable amyloid plaques and normal dopaminergic neurons (imaged between 70 and 80 minutes). […] This image pattern is consistent with a pure AD diagnosis, with no evidence of loss of striatal neurons (which would be observed if PD or DLB were also present). […] This image pattern is consistent with a pure PD diagnosis, without evidence of AD amyloid plaque pathology.
(§4) The Statistical Parametric Mapping (SPM2) application in MATLAB® (Version 7.3 R2006b, MathWorks, Inc.) was used to align the raw images and create a mean image from the image set. The mean image was normalized to a SPECT template, although in other experiments, other templates were used. Using the image viewer application in MRICro, the normalized mean image was compared with the template image to confirm that the two images align. […] Standardized uptake values (SUVs) were calculated from the counts extracted from the images. […]
(§5) The cortical regions are where amyloid plaques are found in the brain using the ^18F-AV-45 radiopharmaceutical, while the striatal regions contain dopaminergic neurons detected with the ^18F-AV-133 radiopharmaceutical. […]

[3] = target: T1, VMAT2 (Homo sapiens, UniProt Q05940); assay: PET imaging of nigrostriatal dopaminergic neurons with ^18F-AV-133 (fused/simulated dual radiopharmaceutical images); type: in vivo; conditions: imaged between 70 and 80 minutes, simulated fused image
T1 construct: from tissue; host or cells: brain (striatal regions, dopaminergic neurons) of living human subjects, in vivo PET
Protocol: as §1, §2, §3, §4, §5

[4] = FIG. 4, individual with clinical signs of AD
[5] = FIG. 7, individual exhibiting symptoms of PD
[6] = FIG. 10, individual with both AD and PD

T1 sequence (Q05940 whole entry, the tested form may be a part): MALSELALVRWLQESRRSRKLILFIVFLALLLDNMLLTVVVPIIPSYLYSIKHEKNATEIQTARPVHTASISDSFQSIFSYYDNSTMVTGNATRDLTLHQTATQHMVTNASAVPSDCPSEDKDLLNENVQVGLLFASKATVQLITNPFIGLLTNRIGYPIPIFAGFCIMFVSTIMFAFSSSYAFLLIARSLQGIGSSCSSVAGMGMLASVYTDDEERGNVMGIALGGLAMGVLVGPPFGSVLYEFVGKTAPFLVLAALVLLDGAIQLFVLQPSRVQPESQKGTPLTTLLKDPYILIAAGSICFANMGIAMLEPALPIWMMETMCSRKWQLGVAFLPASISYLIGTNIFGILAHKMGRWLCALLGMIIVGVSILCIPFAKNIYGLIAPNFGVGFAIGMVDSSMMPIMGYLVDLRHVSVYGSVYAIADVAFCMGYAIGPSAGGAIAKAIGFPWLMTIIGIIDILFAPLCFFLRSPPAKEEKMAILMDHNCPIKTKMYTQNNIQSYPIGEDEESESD

| SMILES | washout and radioactive decay of ^18F-AV-45 from brain [1] | cortical brain signal from ^18F-AV-45 ([2]; FIG. 1, healthy individual) | ^18F-AV-45 radiopharmaceutical signal (amyloid plaque deposits) [2, 4] | amyloid signal in the cortical brain regions from ^18F-AV-45 [2, 5] | ^18F-AV-45 retention (amyloid plaques) [2, 6] | signal in the nigrostriatal region from ^18F-AV-133 ([3]; FIG. 1, healthy individual) | uptake of ^18F-AV-133 in the nigrostriatal region of the brain [3, 4] | intensity of ^18F-AV-133 in the striatal regions [3, 5] | uptake of AV-133 in the striatal regions [3, 6] |
| --- | --- | --- | --- | --- | --- | --- | --- | --- | --- |
| CNc1ccc(/C=C/c2ccc(OCCOCCOCC[18F])nc2)cc1 [^18F-AV-45, (E)-4-(2-(6-(2-(2-(2-[^18F]fluoroethoxy)ethoxy)ethoxy)pyridin-3-yl)vinyl)-N-methylbenzenamine] | essentially complete | no appreciable cortical brain signal | Amyloid plaque deposits are visible in the frontal region of the brain | does not show evidence of amyloid signal in the cortical brain regions | retention in cortical brain |  |  |  |  |
| COc1cc2c(cc1OCCC[18F])CCN1C[C@@H](CC(C)C)[C@H](O)C[C@H]21 [^18F-AV-133, (2R,3R,11bR)-9-(3-[18F]fluoropropoxy)-3-isobutyl-10-methoxy-2,3,4,6,7,11b-hexahydro-1H pyrido[2,1a]isoquinolin-2-ol] |  |  |  |  |  | strong signal in the nigrostriatal region | normal uptake | lack of intensity in the striatal regions | diminished uptake |
